Assay results: US20240199758A1, “METHOD FOR ALLOWING IMMUNE CELLS INFILTRATION IN TUMORS” (Alethia Biotherapeutics Inc., priority 2021, published 2024)
“Also recorded” adds a separate entry of the source.

What was measured:
[1] = system: advanced solid malignancy; assay: Phase I study AB-16B5-101: tumor response (RECIST) and best overall response; type: in vivo, human
[2] = system: frozen Sprague-Dawley rat tissues; assay: Tissue cross-reactivity study, Sprague-Dawley rat tissues; type: binding; conditions: Sprague-Dawley rat tissue panel, 2 and 10 μg/mL
Method: (§1) In addition, a tissue cross-reactivity study was conducted to determine the potential cross-reactivity of AB-16B5 with frozen tissues from human, Rhesus monkey, and Sprague-Dawley rat tissues.

[3] = system: frozen tissues from human; assay: Tissue cross-reactivity study, human tissues; type: binding; conditions: human tissue panel, 2 and 10 μg/mL
Method: as §1

E-cadherin = assay: Phase I study: immunohistochemistry on paired tumor biopsies, E-cadherin; type: in vivo, human
Method: (§2) Immunohistochemistry studies were conducted on paired tumor biopsies to determine if the treatment with AB-16B5 was associated with a reacquisition of an epithelial phenotype.

sCLU = biological target: T1, sCLU (Macaca mulatta, UniProt F6S885); assay: sCLU serum concentrations after single dose administration; type: in vivo; conditions: Rhesus monkeys
T1 construct: from tissue; host or cells: serum of Rhesus monkeys (in vivo)
From the text: (§3) There was an approximate 70% increase in systemic exposure following repeated dosing from Day 1 to Day 26 which is consistent with the elimination half-life of AB-16B5 and the dosing intervals. […] The sCLU concentrations were generally back to their baseline levels after 3 to 5 days. The concurrent decrease in sCLU concentrations immediately following dosing with AB-16B5 is consistent with an antigen-sink phenomenon.

vimentin = assay: Phase I study: immunohistochemistry on paired tumor biopsies, vimentin; type: in vivo, human; conditions: Subject 007, advanced gastric cancer
Method: as §2

[4] = rhesus monkey, in vivo
[5] = Phase I study: detection of AB-16B5 in tumor biopsies; type: in vivo, human; conditions: for Detection of AB-16B5 in Post-Treatment Biopsy: after Cycle 2 Day 15
From the text: (§4) Tumor biopsies were collected during the standard dose escalation to investigate the presence of AB-16B5 within the tumor. A total of 4 pre-treatment and 5 post-treatment tumor biopsies were suitable for analysis. These post-treatment tumor biopsies were collected following dosing on Cycle 2 Day 15 (between Cycle 2 Day 15 and Cycle 2 Day 18). The biopsy sites were liver (n=2), lymph node (n=2), bladder, skin and vulva.

[6] = system: CA 15-3, CA-125, CA 19-9, CEA, LDH and PSA; assay: Phase I study: circulating tumor biomarkers; type: in vivo, human
Method: Several well-established circulating biomarkers were evaluated to monitor the response to therapy. They included CA 15-3, CA-125, CA 19-9, CEA, LDH and PSA.

[7] = Non-clinical pharmacokinetics, single and repeat-dose studies in rats; type: in vivo, Sprague-Dawley rats
From the text: as §3

human tumor biopsies = assay: Human tumor biopsies of patients treated with AB-16B5 as single agent (hematoxylin and eosin); type: in vivo; conditions: on-treatment biopsy after the second cycle
Method: In parallel human tumor biopsies of patients treated with AB-16B5 as single agent were analyzed (FIGS. 2B-2E). Needle biopsies obtained from a patient with metastatic thyroid cancer and form a patient with inoperable metastatic gastric cancer were sectioned and stained with hematoxylin and eosin. An on-treatment biopsy from a patient with thyroid cancer metastasic to the lungs was obtained after the second cycle treatment with AB-16B5. […] Hemosiderin-laden macrophages were observed inside necrotic areas some reflecting red blood cell extravasation associated with necrosis (not shown).

tumor biopsies = assay: Phase I study: necrosis in paired tumor biopsies; type: in vivo, human
Method: as §4, §2

[8] = Non-clinical toxicity, weekly administration in monkeys
[9] = Non-clinical toxicity, weekly administration in rats; type: in vivo, Sprague-Dawley rats
From the text: This finding most likely reflects a slight antigenic stimulation by AB-16B5 in these 2 regional lymph nodes.

[10] = Subject 001, Pancreatic, 1.5 mg/kg, 2 total cycles
[11] = Subject 002, Endometrium, 3.0 mg/kg, 4 total cycles
[12] = Subject 003, Soft Tissue Sarcoma, 6.0 mg/kg, 2 total cycles
[13] = Subject 005, Prostate, 6.0 mg/kg, 2 total cycles
[14] = Subject 010, Colorectal, 12.0 mg/kg, 4 total cycles
[15] = Subject 012, Breast, 12.0 mg/kg, 2 total cycles
[16] = Subject 013, Prostate, 12.0 mg/kg, 2 total cycles
[17] = Subject 014, Vulvar Melanoma, 12.0 mg/kg, 2 total cycles
[18] = Subject 012, Breast, biopsy site Skin
[19] = Subject 013, Prostate, biopsy site Bladder
[20] = thyroid cancer metastatic to the lungs, FIG. 2B

T1 sequence (F6S885 22-448): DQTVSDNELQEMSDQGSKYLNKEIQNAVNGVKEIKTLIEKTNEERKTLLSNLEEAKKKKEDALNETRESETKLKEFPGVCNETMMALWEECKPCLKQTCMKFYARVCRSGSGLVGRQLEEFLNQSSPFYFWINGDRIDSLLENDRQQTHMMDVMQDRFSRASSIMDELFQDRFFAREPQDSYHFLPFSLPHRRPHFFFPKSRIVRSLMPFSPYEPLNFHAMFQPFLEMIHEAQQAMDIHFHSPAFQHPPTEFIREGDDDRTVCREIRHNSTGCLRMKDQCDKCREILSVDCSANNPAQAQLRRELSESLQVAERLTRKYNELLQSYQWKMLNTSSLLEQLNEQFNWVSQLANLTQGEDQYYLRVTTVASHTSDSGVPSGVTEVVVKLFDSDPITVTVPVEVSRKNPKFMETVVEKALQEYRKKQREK

## AB-16B5: humanized IgG2 monoclonal antibody targeting sCLU for the inhibition of cancer-associated EMT; light chain SEQ ID NO:11, heavy chain SEQ ID NO:12
[1]; RECIST-evaluable population
  subjects with best overall response progressive disease (PD): 43%
[1]; [10]
  Best Overall Response: PD (progressive disease (PD))
  Tumor Response at Last Assessment: Non-Target Lesions: PD (New
  Tumor Response at Last Assessment: Target Lesions: PD (progressive disease (PD))
[1]; [11]
  Tumor Response at Last Assessment: Non-Target Lesions: Non-CR/
  Tumor Response at Last Assessment: Target Lesions: PD (progressive disease (PD))
[1]; [12]
  Best Overall Response: PD (progressive disease (PD))
  Tumor Response at Last Assessment: Non-Target Lesions: PD (New
[1]; Subject 004, Thyroid, 6.0 mg/kg, 17 total cycles
  Tumor Response at Last Assessment: Non-Target Lesions: Non-CR/
[1]; [13]
  Best Overall Response: PD (progressive disease (PD))
  Tumor Response at Last Assessment: Non-Target Lesions: Non-CR/
  Tumor Response at Last Assessment: Target Lesions: PD (progressive disease (PD))
[1]; Subject 006, Breast, 9.0 mg/kg, 3 total cycles
  Tumor Response at Last Assessment: Non-Target Lesions: Non-CR/
[1]; Subject 007, Gastric, 9.0 mg/kg, 8 total cycles
  Tumor Response at Last Assessment: Non-Target Lesions: PD (New
[1]; Subject 008, Thyroid, 9.0 mg/kg, 4 total cycles
  Tumor Response at Last Assessment: Non-Target Lesions: PD (New
[1]; Subject 009, Lung, 12.0 mg/kg, 6 total cycles
  Tumor Response at Last Assessment: Non-Target Lesions: PD (New
[1]; [14]
  Tumor Response at Last Assessment: Non-Target Lesions: PD (New
  Tumor Response at Last Assessment: Target Lesions: PD (progressive disease (PD))
[1]; [15]
  Best Overall Response: PD (progressive disease (PD))
  Tumor Response at Last Assessment: Non-Target Lesions: PD (progressive disease (PD))
[1]; [16]
  Best Overall Response: PD (progressive disease (PD))
  Tumor Response at Last Assessment: Non-Target Lesions: PD (New
[1]; [17]
  Best Overall Response: PD (progressive disease (PD))
  Tumor Response at Last Assessment: Non-Target Lesions: PD (New
[1]; Subject 015, Ovarian Cancer, 12.0 mg/kg, 4 total cycles
  Tumor Response at Last Assessment: Non-Target Lesions: PD (New
[1]; patient with advanced gastric cancer
  time on treatment with stable disease (SD) with clinical benefit: 24 weeks
[1]; patient with follicular thyroid cancer
  duration of SD: ~1 year
[2]
  AB-16B5 staining of tissue elements: observed in a number of tissue elements
  membrane staining: no membrane staining was observed
[3]
  AB-16B5 staining of tissue elements: observed in a number of tissue elements
  membrane staining: no membrane staining was observed
E-cadherin; Subject 006, Breast, biopsy site Skin
  E-cadherin Expression in Post-Treatment: Increase
E-cadherin; Subject 007, Gastric, biopsy site Gastric
  E-cadherin Expression in Post-Treatment: Increase
E-cadherin; [18]
  E-cadherin Expression in Post-Treatment: Decrease
E-cadherin; [19]
  E-cadherin Expression in Post-Treatment: No change
E-cadherin; paired tumor biopsies
  patients with increased E-cadherin expression after treatment: 2 pts
sCLU
  sCLU serum concentrations following dosing: decreased significantly
vimentin
  vimentin expression after treatment: loss of vimentin expression
[4]
  emesis during infusion: Few episodes of emesis
  signs of overt toxicity: did not result in any signs of overt toxicity
  treatment-related effects on body weight, ophthalmology, electrocardiography and organ weight: no treatment-related effects
[4]; 100 mg/kg
  animals with hepatocellular vacuolation in the liver: 2 animals
[5]; 5 post-treatment tumor biopsies
  presence of AB-16B5 in post-treatment tumor biopsies: confirmed in all post-treatment tumor biopsies analyzed; also recorded: confirmed in all 5 pts
[5]; Subject 009, Lung, biopsy site Liver
  Detection of AB-16B5 in Post-Treatment Biopsy: Positive
[5]; Subject 010, Colorectal, biopsy site Liver
  Detection of AB-16B5 in Post-Treatment Biopsy: Positive
[5]; [18]
  Detection of AB-16B5 in Post-Treatment Biopsy: Positive
[5]; [19]
  Detection of AB-16B5 in Post-Treatment Biopsy: Positive
[5]; Subject 015, Ovarian, biopsy site Lymph node
  Detection of AB-16B5 in Post-Treatment Biopsy: Positive
[6]; circulating
  level of CEA: remained stable or decreased in few patients
[6]; circulating CA 15-3, CA-125, CA 19-9, CEA, LDH, PSA, correlated with disease progression
  tumor biomarker levels: increased over time
[7]
  systemic exposure over 24 hours versus dose: increased with increasing dose levels in a dose proportional manner
[7]; Day 1 to Day 26
  increase in systemic exposure following repeated dosing: ~70%
[7]; infusion, single and repeat-dose
  peak serum AB-16B5 concentrations: reached shortly after the start of infusion
Human tumor biopsies; metastatic gastric cancer, FIG. 2E
  immune infiltrate in tumor fragments: infiltrated by a mix neutrophilic and mononucleated immune cells infiltrate
Human tumor biopsies; [20]
  immune infiltrate in tumor fragment: A lymphoplasmacytic infiltrate was observed along the edge of the fragment
  necrosis of tumor fragments: essentially all tumor fragments were necrotic
Tumor biopsies; Subject 006, Breast, biopsy site Skin (pre-treatment 0%)
  Necrosis Post-Treatment: 10%
Tumor biopsies; Subject 007, Gastric, biopsy site Gastric (pre-treatment 0%)
  Necrosis Post-Treatment: 0%
Tumor biopsies; Subject 012, Breast, biopsy site Skin (pre-treatment 0%)
  Necrosis Post-Treatment: 5%
Tumor biopsies; Subject 013, Prostate, biopsy site Bladder (pre-treatment 0%)
  Necrosis Post-Treatment: 10%
[8]; monkeys, 20, 60 and/or 100 mg/kg
  mean albumin, globulin, A/G and phosphorus levels: Slight changes
[8]; monkeys, weekly administration
  NOAEL: 100 mg/kg/dose
[9]; rat, in vivo
  incidence of minimal lymphoid hypercellularity, mandibular lymph node: 1/20
  incidence of minimal lymphoid hypercellularity, mesenteric lymph node: 2/20
  reversibility of lymphoid hypercellularity: complete reversibility
  treatment-related clinical signs, changes in body weight, food consumption, ophthalmology, clinical pathology, organ weights: did not result in any treatment-related clinical signs
  treatment-related macroscopic changes: no treatment-related macroscopic changes
[9]; rats, weekly administration
  No Observable Adverse Effect Level (NOAEL): 100 mg/kg/dose
